Laboratory results from article PMC6787163, “Systematic Dual Targeting of Dendritic Cell C-Type Lectin Receptor DC-SIGN and TLR7 Using a Trifunctional Mannosylated Antigen” (Frontiers in Chemistry, 2019).

How the values were obtained:
DC-SIGN ECD = target: T1, DC-SIGN ECD (Homo sapiens, UniProt Q9NNX6); experiment: SPR competition (inhibition) assay, DC-SIGN ECD on BSA-mannotriose surface; format: binding; details: DC-SIGN ECD 20 μM
T1 construct: The ECD of DC-SIGN (residues 66–404) was overexpressed and purified as previously described; made in house
T1 sequence (Q9NNX6 66-404): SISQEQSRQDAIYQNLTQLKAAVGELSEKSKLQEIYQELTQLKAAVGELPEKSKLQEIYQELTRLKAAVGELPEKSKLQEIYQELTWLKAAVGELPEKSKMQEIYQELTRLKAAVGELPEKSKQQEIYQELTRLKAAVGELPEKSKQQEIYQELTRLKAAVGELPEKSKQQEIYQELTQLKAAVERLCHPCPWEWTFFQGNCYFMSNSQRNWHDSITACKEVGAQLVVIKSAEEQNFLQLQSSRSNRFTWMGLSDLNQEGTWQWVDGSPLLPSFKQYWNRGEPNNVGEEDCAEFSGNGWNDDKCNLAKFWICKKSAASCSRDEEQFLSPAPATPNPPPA
Description: (§1) The affinity of the clusters for the extracellular domain (ECD) of the DC-SIGN receptor (DC-SIGN ECD) was estimated via surface plasmon resonance (SPR) assays (Tabarani et al., [2009]). The apparent Kd was calculated in direct interaction mode using a surface functionalized in an oriented manner with DC-SIGN ECD. In this assay, tetrameric DC-SIGN ECD is attached to the surface of the sensor chip via the N-terminus of its neck oligomerization domain, thus presenting its four carbohydrate recognition domains toward the solvent, realistically mimicking the presentation of the receptor on cell surface (Porkolab et al., [2019]). For some of the low affinity ligands, in the mM range, it was not possible to determine their affinity with this assay, and therefore a competition experiment was performed providing IC50 values (Timpano et al., [2008]) (Figure 3A). […] When comparing equivalent clusters, the α1,2-di-mannoside (B series) bound with the highest affinity (Figure 3A). […] A potential explanation for this effect could be that the spacing of clusters is more important for the larger tri-mannosides.
The ECD of DC-SIGN (residues 66–404) was overexpressed and purified as previously described (Tabarani et al., [2009]). The DC-SIGN S-ECD construct used for direct interaction experiment (see below) has been overexpressed and purified as described elsewhere (Porkolab et al., [2019]). The SPR competition experiments were performed on a BIAcore T200 using a CM3 series S sensor chip. Flow cells were activated as previously described (Halary et al., [2002]). Flow cell 1 was functionalized with BSA, blocked with ethanolamine and subsequently used as a control surface. Flow cells 2 and 3 were treated with BSA-Man α1-3[Manα1-6]Man (Dextra) (60 μg/mL) in 10 mM NaOAc pH 4 and blocked with ethanolamine. The final densities on flow cells 2 and 3 were about 2,100 RU. The affinities of the various compounds for DC-SIGN ECD were evaluated via an established inhibition assay (Andreini et al., [2011]) in which DCSIGN ECD was injected at 20 μM alone or in the presence of increasing concentration of inhibitors. Injections were performed at 5 μL/min using 25 mM Tris-HCl pH 8, 150 mM NaCl, 4 mM CaCl2, 0.05% P20 surfactant as running buffer. The surface was regenerated by the injection of 50 mM EDTA. The data was analyzed in BIAcore BIAevaluation software using four parameter equation.

moDCs = experiment: Internalization of biotinylated hexavalent clusters by moDCs (flow cytometry); format: cell-based, human
Description: For the internalization, the moDCs were incubated with clusters b6, c6, d6, and e6 for 1 h at 4°C, where after unbound ligands were washed away with ice-cold medium. Warm medium was added to the moDCs, and samples were taken at the indicated time points and put on ice. Upon staining the moDCs with fluorophore-conjugated streptavidin, we could measure the signal loss of the membrane via flow cytometry. To exclude ligand-receptor dissociation before internalization, the moDCs were fixed under gentle conditions, hereby inhibiting receptor-mediated endocytosis. On fixed moDCs the clusters remained at the surface, as no signal loss could be detected (Supplementary Figure 1D). […] The di-mannoside clusters (b6, c6, and d6) were internalized relatively fast, with a 50% uptake within 5 min (Figure 5B). The tri-mannoside cluster e6 however remained longer at the membrane surface and only a 25% uptake was seen after 30 min. Similar results were seen using a pH-sensitive fluorophore. In acidic environments, such as the endosomes and lysosomes, the fluorescence of this dye increases. Pre-complexed clusters mirrored the accelerated uptake of the di-mannoside clusters over the e6 cluster (Supplementary Figure 1E). Although the DC-SIGN mediated uptake mechanism is known (Cambi et al., [2009]), the initiation trigger for endocytosis upon DC-SIGN-ligand binding remains unclear. Recognition of the di-mannoside clusters could induce signaling leading to accelerated uptake, whereas the tri-mannoside cluster could trigger a different signaling pathway. Nonetheless, the clusters harboring the smaller mannosides are preferred. Although the binding affinity of the clusters ranged from 0.9 to 6.6 μM, the di-mannosides induce more rapid DC-SIGN internalization over the tri-mannosides, and can thus increase intracellular peptide concentrations more efficiently for further antigen processing and presentation.
Immature day 5 moDCs were harvested and washed with cold HBSS (Thermo Fischer), after which half of the moDCs were gently fixed for 20 min at RT with 1% PFA in PBS. Afterwards, 20 μM of the different biotinylated mannose-clusters in cold HBSS were added. The moDCs were incubated for 1 h on ice, and washed in cold HBSS. Subsequently, warm HBSS was added to the cells, and cells were incubated at 37°C in a shaking heating block. At the indicated time points, a sample of the cells was taken and put on ice. After the last time point, the cells were stained with Streptavidin-Alexa647 (Thermo Fisher), measured using flow cytometry (CyAn™ ADP with Summit™ Software), and further analyzed using FlowJo v10. The same procedure was used for internalization with pHrodo^TM Red Avidin (Thermo Fischer). The different biotinylated mannose-clusters were however incubated with pHrodo-Avidin (ratio 2:1) for 15 min at 37°C, prior to moDC exposure. The fluorescence upon internalization was measured using flow cytometry (BD LSRFortessa™ X-20 with FACSDiva Software), and further analyzed using FlowJo v10.

DC-SIGN S-ECD = target: T2, DC-SIGN S-ECD (Homo sapiens, UniProt Q9NNX6); experiment: SPR direct interaction assay on oriented DC-SIGN S-ECD surface; format: binding; details: SPR direct interaction, oriented tetrameric DC-SIGN ECD surface, apparent Kd; read-out: Kdapp
T2 construct: The ECD of DC-SIGN (residues 66–404) was overexpressed and purified as previously described; made in house
T2 sequence (Q9NNX6 66-404): T1 sequence (Q9NNX6 66-404)
Description: as §1
The direct interaction experiments were executed on a T200 Biacore with a CM3 series S sensor chip. Contrary to the competition assay described above, in this test, DC-SIGN ECD used harbors a StreptagII in its N-terminus (DC-SIGN S-ECD) to allow its capture and functionalization onto the surface in an oriented manner. Flow cells were functionalized as previously described (Porkolab et al., [2019]). Briefly, after EDC/NHS activation, flow cells were functionalized with streptactin protein in a first step. Flow cell 1 was used as control, while other flow cells were, in a second round of activation, functionalized with 100 μg/mL of a DC-SIGN S-ECD up to a final density ranging between 2,500 and 3,000 RU, via tag specific capture and linkage by amine coupling chemistry simultaneously. The compounds were injected in running buffer of 25 mM Tris pH 8, 150 mM NaCl, 4 mM CaCl2, 0.05% Tween 20 onto the surface at increasing concentrations with a flow rate of 30 μL/min. The ligand titration led to the determination of an apparent Kd value. The data was analyzed in BIAcore BIAevaluation software for direct interaction 1:1 calculation assuming that the Kd will reflect the affinity of the ligands (glycoclusters) for the DC-SIGN oriented surface used as a whole.

| Compound | IC50 (DC-SIGN ECD) | other results |
| --- | --- | --- |
| CC(=O)N[C@@H](CCCCn1cc(CO[C@H]2O[C@H](CO)[C@@H](O)[C@H](O)[C@@H]2O[C@H]2O[C@H](CO)[C@@H](O)[C@H](O)[C@@H]2O)nn1)C(=O)NCC(=O)N[C@@H](CCCCN)C(N)=O [B1] | 2340 ± 109 µM |  |
| CC(=O)N[C@@H](CCCCn1cc(CO[C@H]2O[C@H](CO[C@H]3O[C@H](CO)[C@@H](O)[C@H](O)[C@@H]3O)[C@@H](O)[C@H](O)[C@@H]2O)nn1)C(=O)NCC(=O)N[C@@H](CCCCN)C(N)=O [D1] | 6960 ± 3040 µM |  |
| CC(=O)N[C@@H](CCCCn1cc(CO[C@H]2O[C@H](CO)[C@@H](O)[C@H](O)[C@@H]2O[C@H]2O[C@H](CO)[C@@H](O)[C@H](O)[C@@H]2O)nn1)C(=O)NCC(=O)N[C@@H](CCCCn1cc(CO[C@H]2O[C@H](CO)[C@@H](O)[C@H](O)[C@@H]2O[C@H]2O[C@H](CO)[C@@H](O)[C@H](O)[C@@H]2O)nn1)C(=O)NCC(=O)N[C@@H](CCCCN)C(N)=O [B2] | 189 ± 3.45 µM |  |
| CC(=O)N[C@@H](CCCCn1cc(CO[C@H]2O[C@H](CO)[C@@H](O)[C@H](O)[C@@H]2O)nn1)C(=O)NCC(=O)N[C@@H](CCCCn1cc(CO[C@H]2O[C@H](CO)[C@@H](O)[C@H](O)[C@@H]2O)nn1)C(=O)NCC(=O)N[C@@H](CCCCN)C(N)=O [A2] | 2600 ± 95 µM |  |
| CC(=O)N[C@@H](CCCCn1cc(CO[C@H]2O[C@H](CO)[C@@H](O)[C@H](O)[C@@H]2O)nn1)C(=O)NCC(=O)N[C@@H](CCCCn1cc(CO[C@H]2O[C@H](CO)[C@@H](O)[C@H](O)[C@@H]2O)nn1)C(=O)NCC(=O)N[C@@H](CCCCn1cc(CO[C@H]2O[C@H](CO)[C@@H](O)[C@H](O)[C@@H]2O)nn1)C(=O)NCC(=O)N[C@@H](CCCCN)C(N)=O [A3] | 736.7 ± 3.4 µM |  |
| CC(=O)N[C@@H](CCCCn1cc(CO[C@H]2O[C@H](CO)[C@@H](O)[C@H](O[C@H]3O[C@H](CO)[C@@H](O)[C@H](O)[C@@H]3O)[C@@H]2O)nn1)C(=O)N[C@@H](CCCCn1cc(CO[C@H]2O[C@H](CO)[C@@H](O)[C@H](O[C@H]3O[C@H](CO)[C@@H](O)[C@H](O)[C@@H]3O)[C@@H]2O)nn1)C(=O)N[C@@H](CCCCn1cc(CO[C@H]2O[C@H](CO)[C@@H](O)[C@H](O[C@H]3O[C@H](CO)[C@@H](O)[C@H](O)[C@@H]3O)[C@@H]2O)nn1)C(=O)N[C@@H](CCCCn1cc(CO[C@H]2O[C@H](CO)[C@@H](O)[C@H](O[C@H]3O[C@H](CO)[C@@H](O)[C@H](O)[C@@H]3O)[C@@H]2O)nn1)C(=O)N[C@@H](CCCCn1cc(CO[C@H]2O[C@H](CO)[C@@H](O)[C@H](O[C@H]3O[C@H](CO)[C@@H](O)[C@H](O)[C@@H]3O)[C@@H]2O)nn1)C(=O)N[C@@H](CCCCn1cc(CO[C@H]2O[C@H](CO)[C@@H](O)[C@H](O[C@H]3O[C@H](CO)[C@@H](O)[C@H](O)[C@@H]3O)[C@@H]2O)nn1)C(=O)NCC(=O)N[C@@H](CCCCN)C(N)=O [C6] |  | internalization by moDCs (loss of surface streptavidin signal) (moDCs; 20 μM cluster, live moDCs): rapidly internalized; internalization by moDCs (pHrodo-avidin fluorescence increase) (moDCs; clusters pre-complexed with pH-sensitive dye): internalized rapidly; uptake by immature moDCs (moDCs; within 5 min at 37°C, 20 μM cluster): 50%; Kd (DC-SIGN S-ECD): 1170 nM |
| CC(=O)N[C@@H](CCCCn1cc(CO[C@H]2O[C@H](CO)[C@@H](O)[C@H](O[C@H]3O[C@H](CO)[C@@H](O)[C@H](O)[C@@H]3O)[C@@H]2O)nn1)C(=O)NCC(=O)N[C@@H](CCCCn1cc(CO[C@H]2O[C@H](CO)[C@@H](O)[C@H](O[C@H]3O[C@H](CO)[C@@H](O)[C@H](O)[C@@H]3O)[C@@H]2O)nn1)C(=O)NCC(=O)N[C@@H](CCCCn1cc(CO[C@H]2O[C@H](CO)[C@@H](O)[C@H](O[C@H]3O[C@H](CO)[C@@H](O)[C@H](O)[C@@H]3O)[C@@H]2O)nn1)C(=O)NCC(=O)N[C@@H](CCCCN)C(N)=O [C3] | 171.9 ± 1.45 µM |  |
| CC(=O)N[C@@H](CCCCn1cc(CO[C@H]2O[C@H](CO[C@H]3O[C@H](CO)[C@@H](O)[C@H](O)[C@@H]3O)[C@@H](O)[C@H](O)[C@@H]2O)nn1)C(=O)NCC(=O)N[C@@H](CCCCn1cc(CO[C@H]2O[C@H](CO[C@H]3O[C@H](CO)[C@@H](O)[C@H](O)[C@@H]3O)[C@@H](O)[C@H](O)[C@@H]2O)nn1)C(=O)NCC(=O)N[C@@H](CCCCN)C(N)=O [D2] | 410.9 ± 0.3 µM |  |
| CC(=O)N[C@@H](CCCCn1cc(CO[C@H]2O[C@H](CO)[C@@H](O)[C@H](O[C@H]3O[C@H](CO)[C@@H](O)[C@H](O)[C@@H]3O)[C@@H]2O)nn1)C(=O)NCC(=O)N[C@@H](CCCCn1cc(CO[C@H]2O[C@H](CO)[C@@H](O)[C@H](O[C@H]3O[C@H](CO)[C@@H](O)[C@H](O)[C@@H]3O)[C@@H]2O)nn1)C(=O)NCC(=O)N[C@@H](CCCCN)C(N)=O [C2] | 567.4 ± 1.15 µM |  |
| CC(=O)N[C@@H](CCCCn1cc(CO[C@H]2O[C@H](CO[C@H]3O[C@H](CO)[C@@H](O)[C@H](O)[C@@H]3O)[C@@H](O)[C@H](O[C@H]3O[C@H](CO)[C@@H](O)[C@H](O)[C@@H]3O)[C@@H]2O)nn1)C(=O)NCC(=O)N[C@@H](CCCCn1cc(CO[C@H]2O[C@H](CO[C@H]3O[C@H](CO)[C@@H](O)[C@H](O)[C@@H]3O)[C@@H](O)[C@H](O[C@H]3O[C@H](CO)[C@@H](O)[C@H](O)[C@@H]3O)[C@@H]2O)nn1)C(=O)NCC(=O)N[C@@H](CCCCN)C(N)=O [E2] | 306 ± 4.75 µM |  |
